± gives the expanded uncertainty stated by the source.
Test: cn = amount concentration of the nth substance listed, in mol/dm3
Conditions: 101 kPa, Liquid; for mass density: Vibrating tube method; for viscosity: Concentric cylinders viscometry, c1 = 0.025

Row | mass density (298.15 K, c1 = 0.2091) [kg/m3] | mass density (298.15 K, c1 = 0.5066) [kg/m3] | mass density (298.15 K, c1 = 1.013) [kg/m3] | mass density (298.15 K, c1 = 1.503) [kg/m3] | mass density (298.15 K, c1 = 1.974) [kg/m3] | mass density (298.15 K, c1 = 2.45) [kg/m3] | viscosity (293.15 K) [mPa·s] | viscosity (298.15 K) [mPa·s] | viscosity (303.15 K) [mPa·s] | Structure (SMILES)
1 | 1005.46 ± 0.056 | 1015.26 ± 0.065 | 1034.19 ± 0.085 | 1049.73 ± 0.11 | 1074.45 ± 0.15 | 1088.01 ± 0.19 | – | – | – | [Cl-].[Na+] [sodium chloride] + O
2 | – | – | – | – | – | – | 1.019 ± 0.0071 | 0.9026 ± 0.0067 | 0.8068 ± 0.0064 | NCC(=O)NCC(=O)O [glycylglycine] + O

Source: the NIST ThermoML archive (doi:10.1021/je800732f)
